Assays:
[1] = refractive index (Na D-line) (dimensionless); details: 298.15 K; 101.3 kPa; Liquid; Standard Abbe refractometry
[2] = Liquid; for mass density: 298.15 K, 101.3 kPa, Vibrating tube method; for vapor or sublimation pressure: Ebulliometric method (Recirculating still)
[3] = xn = mol fraction of the nth substance listed; details: 298.15 K, 101.3 kPa, Liquid, Vibrating tube method

CC(C)CC(C)(C)C [2,2,4-trimethylpentane]
Details | mass density [kg/m3] | refractive index
[1] | – | 1.38905
[2] | 687.8 | –

[2]
Details | vapor or sublimation pressure [kPa]
371.91 K | 100
504.65 K | 1500

CC(C)CC(C)(C)C [2,2,4-trimethylpentane] + CCOC(C)=O
[3]
Details | mass density [kg/m3]
x2 = 0 | 687.8
x2 = 0.0627 | 694.4
x2 = 0.1027 | 699
x2 = 0.1524 | 704.9
x2 = 0.2008 | 711.1
x2 = 0.272 | 721
x2 = 0.3528 | 733.3
x2 = 0.386 | 738.7
x2 = 0.4349 | 747.1
x2 = 0.4568 | 751
x2 = 0.5071 | 760.4
x2 = 0.5362 | 766.1
x2 = 0.6042 | 780.2
x2 = 0.7014 | 802.6
x2 = 0.7603 | 817.7
x2 = 0.8488 | 842.7
x2 = 0.8968 | 857.9
x2 = 0.9273 | 868.1
x2 = 0.9465 | 874.7

CC(C)CC(C)(C)C [2,2,4-trimethylpentane] + COC(C)=O
Details | mass density [kg/m3]
[3], x2 = 0 | 687.8

CCOC(C)=O [ethyl acetate]
Details | mass density [kg/m3] | refractive index
[1] | – | 1.36981
[2] | 894.4 | –

[2]
Details | vapor or sublimation pressure [kPa]
350.19 K | 100
462.75 K | 1500

CCOC(C)=O [ethyl acetate] + CC(C)CC(C)(C)C
Details | mass density [kg/m3]
[3], x1 = 1 | 894.4

CCOC(C)=O [ethyl acetate] + CCCCCCC
[3]
Details | mass density [kg/m3]
x1 = 0.0642 | 687.5
x1 = 0.071 | 688.3
x1 = 0.125 | 695.2
x1 = 0.1274 | 695.8
x1 = 0.1932 | 705.1
x1 = 0.2136 | 708.2
x1 = 0.3294 | 726.7
x1 = 0.3874 | 736.7
x1 = 0.4593 | 750.2
x1 = 0.5966 | 778.8
x1 = 0.6582 | 793.2
x1 = 0.6841 | 799.3
x1 = 0.7001 | 803.7
x1 = 0.7346 | 812.6
x1 = 0.8029 | 830.8
x1 = 0.8272 | 837.6
x1 = 0.8471 | 843.6
x1 = 0.9069 | 862.1
x1 = 0.9631 | 880.7
x1 = 1 | 894.4

CCCCCCC [heptane]
Details | mass density [kg/m3] | refractive index
[1] | – | 1.38527
[2] | 679.7 | –

Details | vapor or sublimation pressure [kPa]
[2], 498.65 K | 1500

CCCCCCC [heptane] + CCOC(C)=O
Details | mass density [kg/m3]
[3], x2 = 0 | 679.7

CCCCCCC [heptane] + COC(C)=O
Details | mass density [kg/m3]
[3], x2 = 0 | 679.7

COC(C)=O [methyl ethanoate]
Details | mass density [kg/m3] | refractive index
[1] | – | 1.35875
[2] | 927.1 | –

[2]
Details | vapor or sublimation pressure [kPa]
329.99 K | 100
436.08 K | 1500

COC(C)=O [methyl ethanoate] + CC(C)CC(C)(C)C
[3]
Details | mass density [kg/m3]
x1 = 0.0646 | 693.5
x1 = 0.0822 | 695.3
x1 = 0.0859 | 695.7
x1 = 0.0992 | 697
x1 = 0.1566 | 703.6
x1 = 0.1941 | 707.9
x1 = 0.208 | 709.7
x1 = 0.224 | 711.7
x1 = 0.2636 | 717.1
x1 = 0.2688 | 717.7
x1 = 0.2957 | 721.6
x1 = 0.3211 | 725.4
x1 = 0.3319 | 727
x1 = 0.3956 | 737.4
x1 = 0.5015 | 757.3
x1 = 0.578 | 774
x1 = 0.5792 | 774.3
x1 = 0.6528 | 792.8
x1 = 0.6958 | 804.5
x1 = 0.7268 | 813.9
x1 = 0.7611 | 824.8
x1 = 0.7834 | 832.2
x1 = 0.8161 | 843.6
x1 = 0.8466 | 855.3
x1 = 0.848 | 855.8
x1 = 0.8628 | 861.6
x1 = 0.8632 | 861.9
x1 = 0.8889 | 872.5
x1 = 0.9179 | 885.5
x1 = 0.9388 | 895.1
x1 = 0.9406 | 895.7
x1 = 0.9456 | 898.3
x1 = 0.9574 | 904.3
x1 = 1 | 927.1

COC(C)=O [methyl ethanoate] + CCCCCCC
[3]
Details | mass density [kg/m3]
x1 = 0.0579 | 685.5
x1 = 0.0789 | 687.8
x1 = 0.0926 | 689.7
x1 = 0.1276 | 694.1
x1 = 0.1562 | 697.4
x1 = 0.1662 | 698.8
x1 = 0.1998 | 703.2
x1 = 0.2413 | 709.3
x1 = 0.2652 | 712.7
x1 = 0.2914 | 716.8
x1 = 0.3583 | 728.4
x1 = 0.4171 | 739
x1 = 0.43 | 741.6
x1 = 0.4682 | 749.3
x1 = 0.506 | 757.3
x1 = 0.5357 | 764
x1 = 0.584 | 775.6
x1 = 0.6338 | 788.4
x1 = 0.715 | 811.7
x1 = 0.7194 | 813
x1 = 0.7256 | 814.9
x1 = 0.7698 | 829
x1 = 0.7996 | 839.2
x1 = 0.8104 | 843.3
x1 = 0.8285 | 850.2
x1 = 0.8537 | 859.8
x1 = 0.8558 | 860.5
x1 = 0.8898 | 874.1
x1 = 0.901 | 879.1
x1 = 0.9172 | 885.8
x1 = 0.9284 | 890.8
x1 = 0.9598 | 905.6
x1 = 0.9631 | 907.4
x1 = 0.9735 | 912.8
x1 = 1 | 927.1

Source: the NIST ThermoML archive (doi:10.1021/acs.jced.9b00668)
